Measurements: PubChem BioAssay (NCI)
“And” between values parts separate entries of the source, which are not always exact repeats. Equal values may be shown once.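 Step 1: Grow cells in 96-well plates. Step 2: Expose to compound for 48 hours at 5 concentrations. Step 3: Interpolate endpoints linearly; if unreached, use highest concentration. GI50 marks 50% less growth. At the TGI there is no net growth.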

Columns and labels:
Test in all cases: NCI anticancer screen, dose series, 48 h
SK-MEL-2 melanoma = tested on: SK-MEL-2 melanoma
SF-268 CNS = tested on: SF-268 CNS
786-0 renal = tested on: 786-0 renal
SW-620 colon = tested on: SW-620 colon
UACC-62 melanoma = tested on: UACC-62 melanoma
SNB-75 CNS = tested on: SNB-75 CNS
NCI-H522 lung = tested on: NCI-H522 lung
TK-10 renal = tested on: TK-10 renal
SK-MEL-28 melanoma = tested on: SK-MEL-28 melanoma
HCT-15 colon = tested on: HCT-15 colon
T-47D breast = tested on: T-47D breast
SN12C renal = tested on: SN12C renal
OVCAR-5 ovarian = tested on: OVCAR-5 ovarian

| Compound | TGI (SK-MEL-2 melanoma) [µM] | TGI (SF-268 CNS) [µM] | TGI (786-0 renal) [µM] | TGI (SW-620 colon) [µM] | TGI (UACC-62 melanoma) [µM] | TGI (SNB-75 CNS) [µM] | TGI (NCI-H522 lung) [µM] | TGI (TK-10 renal) [µM] | TGI (SK-MEL-28 melanoma) [µM] | TGI (HCT-15 colon) [µM] | TGI (T-47D breast) [µM] | TGI (SN12C renal) [µM] | TGI (OVCAR-5 ovarian) [µM] | GI50 (NCI-H522 lung) |
| --- | --- | --- | --- | --- | --- | --- | --- | --- | --- | --- | --- | --- | --- | --- |
| CC(NC(=O)NC(C)(C)C)NC(=O)C(N)CC(=O)O (centres undefined) | > 100 | > 100 | > 100 | > 100 | > 100 | > 100 | > 100 | > 100 | > 100 | > 100 | > 100 | > 100 | > 100 |  |
| COc1ccc(-n2c(N)c(C#N)[nH]c2=O)cc1 | > 10 | > 10 | > 10 | > 10 | > 10 | > 10 | > 10 | > 10 | > 10 | > 10 | > 10 | > 10 | > 10 |  |
| CCOC(=O)C1=C(O)C2C3CC4C2C(O)=C(C(=O)OCC)C2C1C3C42 (centres undefined) | > 100 | > 100 | > 100 | > 100 | > 100 | > 100 | > 100 | > 100 | > 100 | > 100 | > 100 | > 100 | > 100 |  |
| O=C(/C=C/c1ccc(-c2ccccc2)cc1)NCc1ccc(C(=O)NCc2ccccc2)cc1 | > 100 | > 100 | > 100 | > 100 | > 100 | > 100 | > 100 | > 100 | > 100 | > 100 | > 100 | > 100 | > 100 |  |
| O=S(=O)(Nc1nc2ccccc2nc1Nc1ccc2ccccc2c1)c1ccccc1 | 14 | > 67.7 | > 100 | > 100 | 43.8 | > 73.6 | 39.6 | > 82.7 | > 100 | > 57.5 | > 100 | > 68.9 | 81.2 |  |
| C=C(C(=O)O)[C@@H]1C[C@@H]2O[C@H]1[C@@H](O)[C@@H](C)CCCC(C)=CCC[C@@]2(C)O | > 100 | > 100 | > 100 | > 100 | > 100 | > 100 | > 100 | > 100 | > 100 | > 100 | > 100 | > 100 | > 100 | 29.3 µM and 67.6 µM |
| COC(=O)CCC1=C(CC(=O)OC)C(C)(OC)N=C1NC(=O)OCc1ccccc1 (centres undefined) | > 100 | > 100 | > 100 | > 100 | > 100 | > 100 | > 100 | > 100 | > 100 | > 100 | > 100 | > 100 | > 100 |  |
| O=C(/C=C/c1cccc(Oc2ccccc2)c1)NCc1ccc(C(=O)NCc2ccccc2)cc1 | > 100 | > 100 | > 100 | > 100 | > 100 | 53.3 | > 100 | > 100 | > 100 | > 100 | > 100 | > 100 | > 100 |  |
| CC1(C)OC2[C@@H](CO[C@@]3([C@@H](O)CCO)OC(C)(C)O[C@@H]23)O1 (some centres undefined) | > 100 | > 100 | > 100 | > 100 | > 100 | > 100 | > 100 | > 100 | > 100 | > 100 | > 100 | > 100 | > 100 |  |
| COc1c(/C=C/C(C)(C)O)cc(C2CC(=O)c3c(O)cc(O)cc3O2)cc1CC=C(C)C (centres undefined) | 15.6 | 19.2 | 18.1 | > 50 | 13.3 | 22.8 | 18.6 | 15.8 | 42.5 | 17.5 | 33.2 | 14.3 | 16.5 |  |
| CC1=NC2=Nc3nc(C)cc[n+]3CN2C=C1 | > 100 | > 100 | > 100 | > 100 | > 100 | > 100 | > 100 | > 100 | > 100 | > 100 | > 100 | > 100 | > 100 |  |
| NC(N)=NC(N)=Nc1ccc(S(=O)(=O)O)cc1 | > 100 | > 100 | > 100 | > 100 | > 100 | > 100 | > 100 | > 100 | > 100 | > 100 | > 100 | > 100 | > 100 |  |
| COc1ccc2nc(-c3ccccc3)cc(OCC(=O)O)c2c1 | > 100 | > 100 | > 100 | > 100 | > 100 | > 100 | > 100 | > 100 | > 100 | > 100 | > 100 | > 100 | > 100 |  |
| Cc1ccc2c(c1)C(=O)c1nc(C)ccc1C2=O | > 100 | > 100 | > 100 | > 100 | 67.3 | > 100 | 74.2 | > 100 | > 100 | 48.1 | > 100 | 87.9 | > 100 |  |
| CCOC(=O)c1c(N=P(c2ccccc2)(c2ccccc2)c2ccccc2)nnc(-c2ccccc2)c1-c1ccccc1 | > 100 | > 100 | > 100 | > 100 | > 100 | > 100 | > 100 | > 100 | > 100 | > 100 | > 100 | > 100 | > 100 |  |
| CS(=O)(=O)OCCN(CCOS(C)(=O)=O)c1ccc(C=Nc2cccc(Cl)c2)cc1 | 66.5 | > 100 | > 100 | > 100 | 15.6 | > 31.1 | 2.84 | 6.79 | > 30.4 | 10 | > 100 | 27.8 | 17.7 |  |
